Measured values taken from EP2135611A1, “Pregn-5-en-20-yne-3,7,17-triol derivatives for use in therapy” (Hollis-Eden Pharmaceuticals Inc., priority 2001, dated 2002).

Assays:
Distal colitis [1] = assay: TNBS-induced distal colitis; type: in vivo, male Sprague Dawley rats; conditions: for frequency of moderate to severe lesions and their severity compared with negative control (vehicle) and reference control: based on occurrence at multiple colonic levels
Procedure: In another protocol formula 1 compounds were used in a similar animal model. Groups of 10 male Sprague Dawley rats (250-300 grams) were fasted for 24 hours before 2,4,6-trinitrobenzene sulfonic acid (TNBS) or saline challenge. This model presents a severe challenge to the animal's immune system. On Day 0, the rats were lightly anesthetized and a catheter inserted rectally into the colon such that the tip was 8 cm proximal to the anus. Distal colitis was induced by intra-colonic instillation of 0.5 mL of an ethanolic solution of TNBS (60 mg/mL ethanol 50% in water). The test substance, 7-oxodehydroepiandrosterone 20 mg/mL in vehicle or vehicle control was administered by subcutaneous injection (0.1 mL/injection) once a day for 6 days, the first dose being given 30 minutes after TNBS challenge. Sulfasalazine (30 mg/mL in 2% Tween 80 in distilled water) or vehicle control was administered orally (PO) once a day (10mL/kg/day) for 7 days, the first two doses beginning 24 hours and 2 hours before DNBS challenge. Signs of diarrhea were recorded daily by examining the anal area. Animals were fasted for 24 hours prior to sacrifice on day 14 and the colon was removed and weighed. After gross observations of colonic tissues, 3 samples were taken from regions approximately 1, 3, and 8 cm proximal to the anus. If gross ulcers or inflammation were present, at least one sample was taken from the affected region. Before removal of the colon, signs of adhesion between the colon and other organs were recorded. […] Body weight, colon-to-body-weight ratio, and damage scores were assessed. Visible damage was scored on a 1-5 scale as follows: 0 = No damage; 1 = Localized hyperemia but no ulcers; 2= linear ulcers with no significant inflammation; 3 = Linear ulcers with inflammation at one site; 4 = Two or more sites of ulceration and/or inflammation; 5 = Two or more major sites of ulceration and inflammation or one major site of ulceration and inflammation extending more than 1 cm along the length of the colon. […]

Distal colitis [2] = assay: DNBS-induced distal colitis (inflammatory bowel disease model); type: in vivo, male Wistar rats; conditions: for Adhesions between the colon and other organs / Colonic ulceration: observed at sacrifice day 7 or day 8, dosing as for each substance; for diarrhea: recorded daily, dosing as for each substance (AET: 2 mg); for Moderate acute inflammation, number of animals / Severe acute inflammation, number of animals: measured 7 days after DNBS challenge; for Moderate acute inflammation, number of animals / Severe acute inflammation, number of animals / Severe chronic inflammation, number of animals: groups of 10; for Severe chronic inflammation, number of animals: measured 14 days after DNBS challenge
[3] = test system: Experimental allergic encephalomyelitis (EAE); assay: Experimental allergic encephalomyelitis induced with PLP-139-151 peptide/CFA; type: in vivo, Female SJL mice; conditions: for onset of EAE: 3.0 mg s.c. daily for 33 days starting 7 days before peptide; for peak clinical score: reduced from 5.2 ± 0.6; for PLP-139-151 specific T cell proliferation responses: T cells from treated mice; for numbers of TNF-α producing cells in the CNS: treated mice
Procedure: Example 50. Treatment of neurodegenerative conditions. Experimental allergic encephalomyelitis (EAE), is demyelinating disease of the central nervous system with many pathological and clinical similarities with multiple sclerosis (MS). EAE is thus a recognized animal model for human autoimmune conditions such as MS. Formula 1 compounds 16α-fluoroandrost-5-ene-17-one, 3β,7β,17β,-trihydroxyandrost-5-ene and 16α-bromoepiandrosterone were tested for their capacity to delay the onset of EAE or to reduce its symptoms. Female SJL mice (5 animals per group) were immunized with 150 to 200 µg of PLP-139-151 peptide/CFA to induce EAE. Starting 7 days before injection of the peptide, the animals were given daily injections (s.c.) of the compounds (3.0 mg) in 0.1 mL vehicle, or vehicle alone for 33 days. The vehicle consisted of a suspension of the formula 1 compound in saline and carboxymethylcellulose. […] A lower dose (0.3 mg/mouse) or other routes (p.o.) of administration had less effect. […] These compounds limited the production of autoimmune Th-1 associated cytokines, which is consistent with restoration of a more normal Th-1/Th-2 immune balance and/or with reduction of inflammation in this model.

[4] = test system: delayed type hypersensitivity (DTH); assay: Delayed type hypersensitivity to oxazolone (ear thickness); type: in vivo, female BALB/cByJ mice; conditions: for differential ear thickness: 24 hours after oxazolone challenge, vehicle alone 0.225 mm
[5] = s.c. 20 mg/mL formulation once a day, first dose 30 minutes after DNBS, relative to vehicle-treated group / controls
[6] = day 7 (acute inflammation) after DNBS challenge
[7] = day 14 after DNBS challenge (chronic inflammation)

In the case of `C[C@]12CC[C@H](O)CC1=CC(=O)[C@@H]1[C@@H]2CC[C@]2(C)C(=O)CC[C@@H]12` [7-oxodehydroepiandrosterone, 3β-hydroxyandrost-5-ene-7,17-dione], the “effect on inflammation (histopathological data)” value (Distal colitis [1]; 20 mg/mL, 0.1 mL s.c. once a day for 6 days) is reported as “exacerbated the inflammation”, the “decrease of net colon-to-body weight ratio” value (Distal colitis [2]; 0.1 mL s.c. of 2 mg/mL formulation once a day for 6 days, first dose 30 minutes after DNBS, relative to vehicle-treated group) is reported as 19% and the “Adhesions between the colon and other organs” value (Distal colitis [2]) is reported as “absent in all three tested animals”. The Colonic ulceration (Distal colitis [2]) was 1/3, the diarrhea (Distal colitis [2]) was “All animals had diarrhea” and the “decrease of net colon-to-body weight ratio” value (Distal colitis [2]; [5]) was 14%.

In the case of `C[C@]12CCCCC1=CC[C@@H]1[C@@H]2CC[C@]2(C)C(=O)[C@H](F)C[C@@H]12` [16α-fluoroandrost-5-ene-17-one], the “reduction of cumulative disease index” value ([3]; 3.0 mg s.c. daily for 33 days) is reported as > 60%, the relapses ([3]; 3.0 mg s.c. daily for 33 days) is reported as “prevented or significantly attenuated” and the “onset of EAE” value [3] is reported as “significantly delayed”. For the same compound, the peak clinical score ([3]; 3.0 mg s.c. daily for 33 days) was 2.8 ± 1.8, the “PLP-139-151 specific T cell proliferation responses” value [3] was “significantly reduced” and the “numbers of TNF-α producing cells in the CNS” value [3] was “reduced numbers”.

`C[C@]12CC[C@H]3[C@@H]([C@@H](O)C=C4C[C@@H](O)CC[C@@]43C)[C@@H]1CC[C@@H]2O` [AET, 3β,7β,17β-trihydroxyandrost-5-ene] was tested, and the “reduction of cumulative disease index” value ([3]; 3.0 mg s.c. daily for 33 days) was > 60%, the relapses ([3]; 3.0 mg s.c. daily for 33 days) was “prevented or significantly attenuated” and the “onset of EAE” value [3] was “significantly delayed”. The peak clinical score ([3]; 3.0 mg s.c. daily for 33 days) was 2.8 ± 1.8, the “PLP-139-151 specific T cell proliferation responses” value [3] was “significantly reduced” and the “numbers of TNF-α producing cells in the CNS” value [3] was “reduced numbers”. For the same compound, the “enhancement of the DTH response” value ([4]; s.c. 2 mg/day daily for 8 days, first dose 24 hours before sensitization, last dose 24 hours prior to challenge) was 23%, the “reduction in the DTH response” value ([4]; s.c. 2 mg/day, administered 24 hours before challenge or at challenge) was 22-24% and the “animals with colonic ulcerations relative to untreated animals” value (Distal colitis [2]; 2 mg, N=9, pooled data from two studies) was 33%. For the same compound, the “animals showing ulcers (chronic ulceration)” value (Distal colitis [2]; 14 days after challenge, initiation of treatment delayed until 2 days after DNBS challenge) was 5 of 10, the severe ulceration (Distal colitis [2]; [6]) was 2 of 10 and the severe ulceration (Distal colitis [2]; [7]) was 1 of 10. The “net colon-to-body weight ratio, ulcers and diarrhea” value (Distal colitis [2]; four subsequent studies) was “variably reduced”, the “Moderate acute inflammation, number of animals” value (shortened to “Moderate acute inflammation”) (Distal colitis [2]) was 6 animals and the “Severe acute inflammation, number of animals” value (shortened to “Severe acute inflammation”) (Distal colitis [2]) was 4 animals. The “Severe chronic inflammation, number of animals” value (“Severe chronic inflammation” for short) (Distal colitis [2]) was 3 animals, the “Adhesions between the colon and other organs” value (Distal colitis [2]) was “absent” and the diarrhea (Distal colitis [2]) was “no diarrhea”. For the same compound, the “decrease of net colon-to-body weight ratio” value (Distal colitis [2]; s.c. 0.2 mg/day for 5 or 6 days, first dose 30 minutes post-DNBS, relative to controls) was 15% and the “decrease of net colon-to-body weight ratio” value (Distal colitis [2]; s.c. 2.0 mg/day for 5 or 6 days, first dose 30 minutes post-DNBS, relative to controls) was 21%.

For `C[C@]12CC[C@H](O)C[C@@H]1CC[C@@H]1[C@@H]2CC[C@]2(C)C(=O)[C@H](Br)C[C@@H]12` [BrEA, 16α-bromo-3β-hydroxy-5α-androstane-17-one], the “effect on EAE” value ([3]; 3.0 mg s.c. daily for 33 days) was “not significant”, the “frequency of moderate to severe lesions and their severity compared with negative control (vehicle) and reference control” value (Distal colitis [1]) was “appeared to be similar” and the “decrease of net colon-to-body weight ratio” value (Distal colitis [2]; s.c. 100 mg/mL formulation, relative to controls) was 21%.

`O=P1(N(CCCl)CCCl)NCCCO1` (centres unmarked) [cyclophosphamide, reference compound] gave a differential ear thickness [4] of 0.092 mm.

`C[C@]12CC[C@H](O)CC1=CC[C@@H]1[C@@H]2CC[C@]2(C)C(=O)CC[C@@H]12` [dehydroepiandrosterone, reference compound] was tested, and the “frequency of moderate to severe lesions and their severity compared with negative control (vehicle) and reference control” value (Distal colitis [1]) was “appeared to be similar”, the severe ulceration (Distal colitis [2]; [6]) was 10 of 10 and the severe ulceration (Distal colitis [2]; [7]) was 0 of 10. The “Moderate acute inflammation” value (Distal colitis [2]) was 0 animals, the “Severe acute inflammation” value (Distal colitis [2]) was 10 animals and the “Severe chronic inflammation” value (Distal colitis [2]) was 3 animals. The “decrease of net colon-to-body weight ratio” value (Distal colitis [2]; [5]) was 3%.

`C[C@@H]1C[C@H]2[C@@H]3CCC4=CC(=O)C=C[C@]4(C)[C@@]3(F)[C@@H](O)C[C@]2(C)[C@@]1(O)C(=O)CO` [dexamethasone, reference compound] gave a differential ear thickness [4] of 0.144 mm.

With `O=C(O)c1cc(/N=N/c2ccc(S(=O)(=O)Nc3ccccn3)cc2)ccc1O` [sulfasalazine, reference compound] the “change in net colon-to-body weight (BW) ratio” value (Distal colitis [2]; PO 30 mg/mL, 10 mL/kg/day once a day for 7 days, relative to EE-1 treated group) was -33%, the severe ulceration (Distal colitis [2]; [6]) was 3 of 10 and the severe ulceration (Distal colitis [2]; [7]) was 4 of 10. The “Moderate acute inflammation” value (Distal colitis [2]) was 6 animals, the “Severe acute inflammation” value (Distal colitis [2]) was 3 animals and the “Severe chronic inflammation” value (Distal colitis [2]) was 2 animals. The “Adhesions between the colon and other organs” value (Distal colitis [2]) was “no animals”, the Colonic ulceration (Distal colitis [2]) was “no animals” and the diarrhea (Distal colitis [2]) was “all animals”.
